These results are taken from patent US20260042764A1, “COMPOSITIONS AND METHODS FOR INHIBITION OF KRAS” (TheRas, Inc., priority 2022, published 2026).

What is called pIC50 is −log10 of the IC50, conventionally taken in molar units. Lower therefore signals a large IC50.

pIC50: −log10 of the molar value.

Test [1] concerns the target T1, Avi-KRAS G12D (2-169) GTP/RAF1 RBD-3xFLAG (51-131) (Homo sapiens, UniProt P01116, G12D).
T1 construct: Avi-KRAS G12D (2-169)
As to the kind of experiment: Raf1-KRAS G12D-GTP disruption HTRF assay (Biological Example 3). It is filed as binding. The following applies: KRAS G12D, GTP-loaded. In short, it runs like this: (§1)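 50 nM Avi-KRAS (2-169) GTP/RAF1 RBD complex; 75 nM RBD-Avi; pH 7.5 Tris buffer, 10% DMSO; cpd 30 μM top, 3x, 10 pts; 1 h RT, 700 rpm; HTRF, % of DMSO.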
In general terms: TR-FRET usually uses a lanthanide donor and a delayed reading to cut background.

Test [2] has as its target T2, Avi-KRAS G12C (2-169) GTP/RAF1 RBD-3xFLAG (51-131) (Homo sapiens, UniProt P01116, G12C).
T2 construct: Avi-KRAS G12C (2-169)
As to the kind of experiment: Raf1-KRAS G12C-GTP disruption HTRF assay (Biological Example 3). It is filed as binding. The following applies: KRAS G12C, GTP-loaded. In short, it runs like this: as §1

The target in test [3] is T3, Avi-KRAS G12V (2-169) GTP/RAF1 RBD-3xFLAG (51-131) (Homo sapiens, UniProt P01116, G12V).
T3 construct: Avi-KRAS G12V (2-169)
T3 sequence (P01116 2-169 isoform P01116-2 G12V): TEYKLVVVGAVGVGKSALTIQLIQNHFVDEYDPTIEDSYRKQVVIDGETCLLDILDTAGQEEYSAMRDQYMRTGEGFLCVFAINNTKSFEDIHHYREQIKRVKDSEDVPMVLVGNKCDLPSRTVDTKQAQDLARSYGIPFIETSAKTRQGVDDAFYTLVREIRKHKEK
As to the kind of experiment: Raf1-KRAS G12V-GTP disruption HTRF assay (Biological Example 3). The class given is binding. The following applies: KRAS G12V, GTP-loaded. In short, it runs like this:
as §1

The next test concerns GP2d cells (KRAS G12D). The test is described as follows: Cell-based pERK HTRF assay in GP2d cell (Biological Example 2). The following applies: GP2d, GP2d (KRAS G12D) cells. In short, it runs like this: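 GP2d (KRAS G12D) cells were plated in DMEM/10% FBS and treated the next day for 60 min with compounds. Dosing used 9-point half-log series starting at 1 μM or 100 nM in 0.25% DMSO. Lysates were read by HTRF pERK (d2/Eu cryptate antibodies) after 4–24 h at room temperature, with excitation at 320 nm and emission at 615 nm.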

The subject of a further test is SW620 cells (KRAS G12V). The test is described as follows: Cell-based pERK HTRF assay in SW620 cell (Biological Example 4). The following applies: Homo sapiens, SW-620, SW620 (KRAS G12V) cells. In short, it runs like this:
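This assay measures inhibition of ERK phosphorylation downstream of KRAS G12V in intact SW620 cells. Compounds are applied for 4 h over nine half-log concentrations starting at 1 μM, and pERK is quantified by HTRF.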

The target of test [4] is T4, Avi-KRAS WT (2-169) GTP/RAF1 RBD-3xFLAG (51-131) (Homo sapiens, UniProt P01116).
T4 construct: Avi-KRAS WT (2-169)
T4 sequence (P01116 2-169 isoform P01116-2): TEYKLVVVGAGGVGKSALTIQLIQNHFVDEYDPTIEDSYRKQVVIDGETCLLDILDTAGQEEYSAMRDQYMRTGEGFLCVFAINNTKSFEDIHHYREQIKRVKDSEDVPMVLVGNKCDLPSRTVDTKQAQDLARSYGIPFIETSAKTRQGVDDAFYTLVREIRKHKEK
As to the kind of experiment: Raf1-KRAS WT-GTP disruption HTRF assay (Biological Example 3). It is filed as binding. The following applies: KRAS WT, GTP-loaded. In short, it runs like this:
as §1

T1 sequence (P01116 2-169 isoform P01116-2 G12D): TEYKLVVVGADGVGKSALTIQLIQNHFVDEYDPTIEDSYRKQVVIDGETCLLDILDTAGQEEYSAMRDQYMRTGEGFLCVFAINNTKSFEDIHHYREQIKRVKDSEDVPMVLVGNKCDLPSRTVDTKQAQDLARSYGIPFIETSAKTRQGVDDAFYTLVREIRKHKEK
T2 sequence (P01116 2-169 isoform P01116-2 G12C): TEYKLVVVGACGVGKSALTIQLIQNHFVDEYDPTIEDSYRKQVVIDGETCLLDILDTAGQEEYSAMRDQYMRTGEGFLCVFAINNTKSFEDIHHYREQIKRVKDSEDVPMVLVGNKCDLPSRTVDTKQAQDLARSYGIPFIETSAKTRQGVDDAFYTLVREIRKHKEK

On to `CN(Cc1ccccc1)c1nc(OC[C@@]23CCCN2C[C@H](F)C3)nc2c(F)c(-c3ccc(F)c4sc(N)c(C#N)c34)c(C(F)(F)F)cc12` (atropisomer, axis not shown) [Compound 890], for which the pIC50 in test [1] is under 5.00; in test [2], under 5.00; in test [3] it was under 5.00; in the test with GP2d cells (KRAS G12D), 6.00 to 7.00; in the test on SW620 cells (KRAS G12V), 6.00 to 7.00; in test [4] it was under 5.00.
`CCN(c1nc(OC[C@@]23CCCN2C[C@H](F)C3)nc2c(F)c(-c3ccc(F)c4sc(N)c(C#N)c34)c(C(F)(F)F)cc12)[C@H]1C[C@H]2C[C@H](C)C(=O)N2C1` (atropisomer, axis not shown) [Compound 891]: the pIC50 in test [1] was at least 7.00; in test [2], at least 7.00; in test [3], at least 7.00; in the test with GP2d cells (KRAS G12D), over 7.00; with SW620 cells (KRAS G12V), over 7.00; in test [4], at least 7.00.
For the compound `CCN(c1nc(OC[C@@]23CCCN2C[C@H](F)C3)nc2c(F)c(-c3ccc(F)c4sc(N)c(C#N)c34)c(C(F)(F)F)cc12)[C@H]1CCN(C(=O)[C@@H]2C[C@H]2F)[C@@H]1C` (atropisomer, axis not shown) [Compound 892], the pIC50 is 6.00 to 7.00 in test [1]; 6.00 to 7.00 in test [2]; 6.00 to 7.00 in test [3]; over 7.00 in the test on GP2d cells (KRAS G12D); over 7.00 in the test on SW620 cells (KRAS G12V); 6.00 to 7.00 in test [4].
As to `CCN(c1nc(OC[C@@]23CCCN2C[C@H](F)C3)nc2c(F)c(-c3ccc(F)c4sc(N)c(C#N)c34)c(C(F)(F)F)cc12)[C@H]1CC[C@](C)(C(=O)N(C)C)C1` (atropisomer, axis not shown) [Compound 894], the pIC50 in test [1] was 5.00 to 6.00; in test [2], 5.00 to 6.00; in test [3], 5.00 to 6.00; in the test on GP2d cells (KRAS G12D), over 7.00; in the test on SW620 cells (KRAS G12V), over 7.00; in test [4], 5.00 to 6.00.
For the compound `CN(Cc1ccnnc1)c1nc(OC[C@@]23CCCN2C[C@H](F)C3)nc2c(F)c(-c3ccc(F)c4sc(N)c(C#N)c34)c(C(F)(F)F)cc12` (atropisomer, axis not shown) [Compound 896], the pIC50 is 6.00 to 7.00 in test [1]; 5.00 to 6.00 in test [2]; 5.00 to 6.00 in test [3]; over 7.00 with GP2d cells (KRAS G12D); over 7.00 in the test on SW620 cells (KRAS G12V); 5.00 to 6.00 in test [4].
On to `CN(Cc1cncnc1)c1nc(OC[C@@]23CCCN2C[C@H](F)C3)nc2c(F)c(-c3ccc(F)c4sc(N)c(C#N)c34)c(C(F)(F)F)cc12` (atropisomer, axis not shown) [Compound 898], for which the pIC50 in test [1] is 6.00 to 7.00; in test [2], 5.00 to 6.00; in test [3], 6.00 to 7.00; in the test with GP2d cells (KRAS G12D) it was over 7.00; with SW620 cells (KRAS G12V), over 7.00; in test [4] it was 5.00 to 6.00.
For `CCN(c1nc(OC[C@@]23CCCN2C[C@H](F)C3)nc2c(F)c(-c3ccc(F)c4sc(N)c(C#N)c34)c(C(F)(F)F)cc12)[C@H]1CCN(C(=O)c2coc(C)n2)[C@@H]1C` (atropisomer, axis not shown) [Compound 899], the pIC50 in test [1] is 6.00 to 7.00; in test [2], 6.00 to 7.00; in test [3], 6.00 to 7.00; with GP2d cells (KRAS G12D), over 7.00; in the test with SW620 cells (KRAS G12V), over 7.00; in test [4], 6.00 to 7.00.
With `CCN(c1nc(OC[C@@]23CCCN2C[C@H](F)C3)nc2c(F)c(-c3ccc(F)c4sc(N)c(C#N)c34)c(C(F)(F)F)cc12)[C@H]1CCN(C(=O)c2cocn2)[C@@H]1C` (atropisomer, axis not shown) [Compound 900], the negative-log IC50 (pIC50) in test [1] was 6.00 to 7.00; in test [2] it was 6.00 to 7.00; in test [3], 6.00 to 7.00; in the test on GP2d cells (KRAS G12D) it was over 7.00; with SW620 cells (KRAS G12V), over 7.00; in test [4], 6.00 to 7.00.
With `CCN(c1nc(OC[C@@]23CCCN2C[C@H](F)C3)nc2c(F)c(-c3ccc(F)c4sc(N)c(C#N)c34)c(C(F)(F)F)cc12)[C@H]1CCN(C(=O)c2ncoc2C)C1` (atropisomer, axis not shown) [Compound 901], the pIC50 in test [1] is 6.00 to 7.00; in test [2], 6.00 to 7.00; in test [3] it was 6.00 to 7.00; in the test on GP2d cells (KRAS G12D) it was over 7.00; in the test with SW620 cells (KRAS G12V), over 7.00; in test [4] it was 6.00 to 7.00.
For `CCN(c1nc(OC[C@@]23CCCN2C[C@H](F)C3)nc2c(F)c(-c3ccc(F)c4sc(N)c(C#N)c34)c(C(F)(F)F)cc12)[C@H]1CCN(C(=O)c2cnc(C)s2)C1` (atropisomer, axis not shown) [Compound 902], the pIC50 in test [1] was at least 7.00; in test [2], 6.00 to 7.00; in test [3], at least 7.00; in the test on GP2d cells (KRAS G12D), over 7.00; with SW620 cells (KRAS G12V) it was over 7.00; in test [4], 6.00 to 7.00.
Take `CCN(c1nc(OC[C@@]23CCCN2C[C@H](F)C3)nc2c(F)c(-c3ccc(F)c4sc(N)c(C#N)c34)c(C(F)(F)F)cc12)[C@H]1CCN(C(=O)c2cnc(Cl)s2)C1` (atropisomer, axis not shown) [Compound 905]: the pIC50 in test [1] was 6.00 to 7.00; in test [2], 6.00 to 7.00; in test [3], 6.00 to 7.00; with GP2d cells (KRAS G12D), over 7.00; in the test with SW620 cells (KRAS G12V), over 7.00; in test [4], 5.00 to 6.00.
With `CCN(c1nc(OC[C@@]23CCCN2C[C@H](F)C3)nc2c(F)c(-c3ccc(F)c4sc(N)c(C#N)c34)c(C(F)(F)F)cc12)[C@H]1C[C@H]2[C@@H](C)N(C)C(=O)N2C1` (atropisomer, axis not shown) [Compound 910], the pIC50 in test [1] is 6.00 to 7.00; in test [2] it was 6.00 to 7.00; in test [3], 6.00 to 7.00; with GP2d cells (KRAS G12D), over 7.00; in the test with SW620 cells (KRAS G12V) it was over 7.00; in test [4] it was 6.00 to 7.00.
As to `CCN(c1nc(OC[C@@]23CCCN2C[C@H](F)C3)nc2c(F)c(-c3ccc(F)c4sc(N)c(C#N)c34)c(C(F)(F)F)cc12)[C@H]1CCN(C(=O)c2ccc(C)s2)C1` (atropisomer, axis not shown) [Compound 911], the pIC50 was 6.00 to 7.00 in test [1]; 6.00 to 7.00 in test [2]; 6.00 to 7.00 in test [3]; over 7.00 in the test on GP2d cells (KRAS G12D); over 7.00 with SW620 cells (KRAS G12V); 5.00 to 6.00 in test [4].
Regarding `CCN(c1nc(OC[C@@]23CCCN2C[C@H](F)C3)nc2c(F)c(-c3ccc(F)c4sc(N)c(C#N)c34)c(C(F)(F)F)cc12)[C@H]1C[C@H](C)N(C(=O)c2cocn2)C1` (atropisomer, axis not shown) [Compound 914], the pIC50 is 6.00 to 7.00 in test [1]; 6.00 to 7.00 in test [2]; at least 7.00 in test [3]; over 7.00 with GP2d cells (KRAS G12D); over 7.00 with SW620 cells (KRAS G12V); 6.00 to 7.00 in test [4].
Regarding `CCN(c1nc(OC[C@@]23CCCN2C[C@H](F)C3)nc2c(F)c(-c3ccc(F)c4sc(N)c(C#N)c34)c(C(F)(F)F)cc12)[C@H]1C[C@H](C)N(C(=O)c2coc(C)n2)C1` (atropisomer, axis not shown) [Compound 915], the pIC50 in test [1] was at least 7.00; in test [2], 6.00 to 7.00; in test [3], at least 7.00; in the test on GP2d cells (KRAS G12D), over 7.00; in the test on SW620 cells (KRAS G12V), over 7.00; in test [4], 6.00 to 7.00.
Consider `CN(c1nc(OC[C@@]23CCCN2C[C@H](F)C3)nc2c(F)c(-c3ccc(F)c4sc(N)c(C#N)c34)c(C(F)(F)F)cc12)[C@H]1CC(=O)N2CCC[C@@H]12` (atropisomer, axis not shown) [Compound 916], for which the negative-log IC50 (pIC50) in test [1] was 6.00 to 7.00; in test [2] it was 6.00 to 7.00; in test [3], 6.00 to 7.00; in the test on GP2d cells (KRAS G12D) it was over 7.00; in the test with SW620 cells (KRAS G12V) it was over 7.00; in test [4], 6.00 to 7.00.
For the compound `CN(Cc1ccno1)c1nc(OC[C@@]23CCCN2C[C@H](F)C3)nc2c(F)c(-c3ccc(F)c4sc(N)c(C#N)c34)c(C(F)(F)F)cc12` (atropisomer, axis not shown) [Compound 917], the pIC50 in test [1] is 6.00 to 7.00; in test [2], 5.00 to 6.00; in test [3] it was 6.00 to 7.00; with GP2d cells (KRAS G12D), over 7.00; in the test on SW620 cells (KRAS G12V), over 7.00; in test [4] it was 5.00 to 6.00.
As to `CCN(c1nc(OC[C@@]23CCCN2C[C@H](F)C3)nc2c(F)c(-c3ccc(F)c4sc(N)c(C#N)c34)c(C(F)(F)F)cc12)[C@H]1CCN(C(=O)[C@@H]2CCO2)[C@@H]1C` (atropisomer, axis not shown) [Compound 918], the pIC50 was at least 7.00 in test [1]; at least 7.00 in test [2]; at least 7.00 in test [3]; over 7.00 in the test on GP2d cells (KRAS G12D); over 7.00 in the test on SW620 cells (KRAS G12V); at least 7.00 in test [4].
